What is called TGI is the concentration at which net growth stops. Low values mean more potent growth arrest, high ones less potent growth arrest.

We go through ten compounds from PubChem BioAssay (NCI).

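Dose response: 5 concentrations. Exposure: 48 h. Format: 96-well plates. Endpoint: linear interpolation; highest concentration if not reached. TGI: total growth inhibition.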

Test systems include 786-0 renal; A498 renal; DU-145 prostate; HOP-62 NSCLC; K-562 leukemia; M14 melanoma; OVCAR-4 ovarian; RXF 393 renal; SK-MEL-28 melanoma; SK-MEL-5 melanoma; SW-620 colon.
Holding throughout (assay): DTP human tumour cell line panel, 48 h

As for `COc1ccc2sc(-n3nc4ccccc4c3Nc3nc4ccc(OC)cc4s3)nc2c1`, the TGI in the test with 786-0 renal was 3.87 µM; with A498 renal, 5.63 µM; with DU-145 prostate, 17.9 µM; in the test with HOP-62 NSCLC, 4.43 µM; in the test with K-562 leukemia, more than 38.9 µM; in the test on M14 melanoma, 35.8 µM. For the same compound, the TGI was found to be 6.82 µM in the test with OVCAR-4 ovarian; 43.3 µM in the test with RXF 393 renal; 26.5 µM in the test with SK-MEL-28 melanoma; 9.97 µM in the test with SK-MEL-5 melanoma; 36.4 µM in the test on SW-620 colon.
As for `CC(C)[Si](OC1=CCC[C@H]2NC(=O)[C@@H](Cc3ccccc3)[C@@]12C)(C(C)C)C(C)C`, the concentration for total growth inhibition (TGI) with 786-0 renal turned out to be 14.9 µM; in the test with A498 renal, 19.2 µM; in the test with DU-145 prostate it was 22.1 µM; in the test with HOP-62 NSCLC it was 24.2 µM; with K-562 leukemia it was 12.5 µM; in the test with M14 melanoma, 24.7 µM. The TGI with OVCAR-4 ovarian worked out at 19.7 µM; in the test with RXF 393 renal it was 15 µM; with SK-MEL-28 melanoma it was 13.1 µM; with SK-MEL-5 melanoma, 9.58 µM; in the test with SW-620 colon, 9.16 µM.
Consider `CCOC(=O)NC(NC1=NCCS1)(C(=O)OCC)C(F)(F)F` (stereo not given), for which the TGI in the test with 786-0 renal, in the test on A498 renal, in the test on DU-145 prostate, with HOP-62 NSCLC, with K-562 leukemia and in the test on M14 melanoma was more than 100 µM in each case. The total growth inhibition concentration (TGI) in the test with OVCAR-4 ovarian, with RXF 393 renal, in the test with SK-MEL-28 melanoma, in the test with SK-MEL-5 melanoma and with SW-620 colon was more than 100 µM each time.
`CCn1cc(C(=O)O)c(=O)c2cc3c(cc21)S(=O)(=O)CC3`: the TGI in the test with 786-0 renal, with A498 renal, with DU-145 prostate, in the test on HOP-62 NSCLC, with K-562 leukemia and with M14 melanoma was more than 100 µM throughout. The TGI with OVCAR-4 ovarian, in the test on RXF 393 renal, in the test on SK-MEL-28 melanoma, in the test with SK-MEL-5 melanoma and in the test with SW-620 colon was more than 100 µM throughout.
With `O=S(=O)(O)ON=C1c2ccccc2-c2ccccc21`, the TGI in the test on 786-0 renal, in the test on A498 renal, in the test with DU-145 prostate, in the test on HOP-62 NSCLC, in the test on K-562 leukemia and in the test with M14 melanoma was more than 100 µM in each case. The TGI in the test on OVCAR-4 ovarian, with RXF 393 renal, in the test with SK-MEL-28 melanoma, in the test with SK-MEL-5 melanoma and in the test with SW-620 colon was more than 100 µM each time.
As for `O=C1[C@@H]2[C@@H](c3ccccc3)[C@]2(Cl)C(=O)[C@H]2[C@H](c3ccccc3)[C@@]12Cl`, the TGI in the test on 786-0 renal, in the test with A498 renal, in the test with DU-145 prostate, in the test with HOP-62 NSCLC, with K-562 leukemia and in the test on M14 melanoma was more than 100 µM each time. For the same compound, the TGI in the test with OVCAR-4 ovarian, in the test with RXF 393 renal, in the test with SK-MEL-28 melanoma, with SK-MEL-5 melanoma and in the test on SW-620 colon was more than 100 µM each time.
Take `Cc1cc(Cc2c(F)c(F)c(C(c3cc(C)no3)c3c(F)c(F)c(F)c(F)c3F)c(F)c2F)on1` (stereo not given): the TGI in the test with 786-0 renal, in the test with A498 renal, with DU-145 prostate, in the test on HOP-62 NSCLC, in the test with K-562 leukemia and with M14 melanoma was more than 100 µM in each case. Besides, the TGI with OVCAR-4 ovarian was more than 100 µM; in the test with RXF 393 renal, 8.08 µM; with SK-MEL-28 melanoma, more than 100 µM; in the test with SK-MEL-5 melanoma, more than 100 µM; in the test on SW-620 colon, more than 100 µM.
As to `N#C/C(=C\NC(=S)c1ccncc1)c1nc2ccccc2s1`, the TGI in the test with 786-0 renal, with A498 renal, in the test with DU-145 prostate, with HOP-62 NSCLC, in the test with K-562 leukemia and in the test with M14 melanoma was more than 100 µM each time. Moreover, the TGI in the test on OVCAR-4 ovarian, in the test with RXF 393 renal, with SK-MEL-28 melanoma, with SK-MEL-5 melanoma and with SW-620 colon was more than 100 µM throughout.
Take `N#CCCN(CCC#N)c1ccc(/C=C2\N=C(c3ccccc3)N(NC(N)=S)C2=O)cc1`: the TGI in the test with 786-0 renal, in the test with A498 renal, in the test with DU-145 prostate, with HOP-62 NSCLC, with K-562 leukemia and in the test with M14 melanoma was more than 100 µM throughout. The TGI with OVCAR-4 ovarian, in the test with RXF 393 renal, in the test on SK-MEL-28 melanoma, in the test on SK-MEL-5 melanoma and in the test on SW-620 colon was more than 100 µM each time.
As for `CCCCN1C(=O)c2c(-c3sccc3N)sc(-c3sccc3N)c2C1=O`, the TGI in the test with 786-0 renal is 21.1 µM; in the test with A498 renal it was 76.8 µM; in the test on DU-145 prostate, more than 100 µM; in the test on HOP-62 NSCLC, 41.5 µM; with K-562 leukemia, more than 100 µM; with M14 melanoma, more than 100 µM. Further, the TGI with OVCAR-4 ovarian was 45.3 µM; in the test on RXF 393 renal, 41 µM; with SK-MEL-28 melanoma, 36.7 µM; with SK-MEL-5 melanoma, more than 100 µM; with SW-620 colon, more than 100 µM.
